Results published in article PMC9400670, “Establishing the selective phospholipid membrane coordination, permeation and lysis properties for a series of ‘druggable’ supramolecular self-associating antimicrobial amphiphiles” (Chemical Science, 2022).

Columns and labels:
MRSA USA300 = settings: n = 3, 0.5 McFarland standard, after 900 min, number in bracket = efficacy rank; cited from earlier work
[1] = tested on: phospholipid vesicles (PC, PG, PE-PG mix, E. coli total, E. coli polar); test: Vesicle membrane binding assay (FP), comparison across the five vesicle types; settings: SSA 0.15 mM, in words
From the text: For intrinsically fluorescent SSAs 5, 6 and 8–12, FP titration experiments enabled the observation of SSA: phospholipid vesicle interactions. Here, an increase in FP value indicates an increase in the apparent size of the SSA as it interacts with the phospholipid vesicle.
The results of these studies have been summarised for convenience in Table 3 however, specific SSA: phospholipid vesicle interactions are also exemplified within Fig. 8. […] Here phospholipid vesicle selectivity appears to be driven by the presence of a methyl substituent appended from the benzothiazole unit, in addition to a urea-methyl/ethyl spacer-anionic functionality. Interesting the presence of the thiourea group, increasing SSA […] and increasing hydrogen bond donor acidity, while increasing the levels of vesicle interaction overall, decreased any specific SSA selectivity. […]
Fluorescence polarisation: Lipid films were resuspended in Buffer (150 mM KCl, 10 mM HEPES, pH 7.4, 2 mM EGTA) and subjected to 9 freeze-thaw cycles in liquid nitrogen and extruded 20 times through a 200 nm polycarbonate membrane. Black bottom 96-well plates were prepared by serially diluting desired vesicle solution across the plate, the appropriate SSA solution (100 µL, 0.15 mM) was added to each well to give a total well volume of 200 µL. Fluorescent SSA solutions were set to a FP value of 100 mP. Data were acquired in endpoint mode. […]
1H NMR CPMG: 1H NMR CPMG3,4 spectra were obtained with a Bruker Avance III […] spectrometer equipped with a TCIP cryoprobe at 298 K. Samples were supplemented with 5 % D 2O and 0.02 mM 4,4-dimethyl4-silapentane-1-sulfonic acid (DSS). […]
The P1 pulses were 9 µs at a power of 7.9 W. Presaturation was applied between acquisitions for 100 ms at a power level of 280 mW and acquisition was carried out of 85 2 µs. Water […]
180 o pulses of 1 ms. Repetition times were chosen to achieve suitable water suppression with the presat and watergate sequences used in 95 % H2O solution. The length of the CPMG element was chosen to achieve good differentiation between unbound and strongly bound ligands. Data was collected with 16,384 points and a spectral width of 16.0242 ppm, receiver gain was set to 128, with 512 scans, 8 dummy scans and an acquisition time of 0.85 s. Data was processed using MestreNova software. All spectra were automatically phased, baselined corrected using a polynomial function and calibrated to the centre of the DSS peak.
Fitting of 1H NMR CPMG data: The data was fit to Michaelis Menten and Hill plot models and compared through R2 analysis using Origin 2022 software,5 growth/sigmoidal category, Hill/MichaelisMenten function, Levenberg Marquardt iteration algorithm. Vmax fixed to 100 % as this was the greatest proportion of SSA that could be coordinated to the nanodiscs. […]

[2] = Critical micelle concentration from surface tension measurements (pendant drop); format: physicochemical; settings: 19 : 1 H2O : EtOH solution at 298 K
From the text: Section 2: General Methods
General remarks: A positive pressure of nitrogen and oven dried glassware were used for all reactions.
All solvents and starting materials were purchased from known chemical suppliers or available stores and used without any further purification unless specifically stipulated. The NMR spectra were obtained using a Burker AV2 400 MHz, AVNEO 400 MHz or Avance III […] spectrometer. The data was processed using ACD Labs or MestreNova software. NMR Chemical shift values are reported in parts per million (ppm) and calibrated to the centre of the residual solvent peak set (s = singlet, br = broad, d = doublet, t = triplet, q = quartet, m = multiplet). Fluorescence and fluorescence polarisation measurements were conducted using a Clariostar plate reader and analysed using MARS data analysis […]
Tensiometry Studies: All the samples were prepared in an EtOH:H2O (1:19) solution. All samples underwent an annealing process in which the various solutions were heated to approximately 40 °C before being allowed to cool to room temperature, allowing each sample to reach a thermodynamic minimum. All samples were prepared through serial dilution of the most concentrated sample. Three surface tension measurements were obtained for each sample at a given concentration, using the […]
pendant drop method. […]
Data

SMILES | MIC50 MRSA (MRSA USA300) | SSA: phospholipid vesicle interaction / selectivity (FP titration) [1] | other results
O=C(NCS(=O)(=O)O)Nc1ccc(C(F)(F)F)cc1 [SSA 1] | 0.46(2) mM | – | –
O=C(NCS(=O)(=O)O)Nc1ccc(C(F)(F)F)cc1 [SSA 3] | 0.35(1) mM | – | –
O=C(O)CNC(=O)Nc1ccc(C(F)(F)F)cc1 [SSA 4] | 1.14(6) mM | – | –
O=C(NCS(=O)(=O)O)Nc1ccccc1-c1nc2ccccc2s1 [SSA 5] | 0.99(5) mM | – | –
Cc1ccc2nc(-c3ccc(NC(=O)NCS(=O)(=O)O)cc3)sc2c1 [SSA 6] | 0.93(4) mM | limited selectivity with a preference for PC, PG and E. coli polar over the E. coli total and PG : PE mix | –
O=C(NCS(=O)(=O)O)Nc1ccc(-c2nc3ccccc3s2)cc1 [SSA 8] | – | little selectivity for different phospholipid membranes | CMC ([2]; unit printed in Figs S37-S40, not in Table 3, listed as 8): 5.2 mM; CMC ([2]; unit printed in Figs S37-S40, not in Table 3, listed as compound 8): 5.16 mM
Cc1ccc2nc(-c3ccc(NC(=O)NCCC(=O)O)cc3)sc2c1 [SSA 9] | – | – | CMC ([2]; unit printed in Figs S37-S40, not in Table 3, listed as 9): 1.9 mM; CMC ([2]; unit printed in Figs S37-S40, not in Table 3, listed as compound 9): 1.92 mM
Cc1ccc2nc(-c3ccc(NC(=O)NCCCS(=O)(=O)O)cc3)sc2c1 [SSA 10] | – | little selectivity for different phospholipid membranes | CMC ([2]; unit printed in Figs S37-S40, not in Table 3, listed as 10): 14.8 mM; CMC ([2]; unit printed in Figs S37-S40, not in Table 3, listed as compound 10): 14.77 mM
Cc1ccc2nc(-c3ccc(NC(=O)NCC(=O)O)cc3)sc2c1 [SSA 11] | – | – | CMC ([2]; unit printed in Figs S37-S40, not in Table 3, listed as 11): 3.0 mM; CMC ([2]; unit printed in Figs S37-S40, not in Table 3, listed as compound 11): 3.03 mM
Cc1ccc2nc(-c3ccc(NC(=S)NCS(=O)(=O)O)cc3)sc2c1 [SSA 12] | – | strong interaction with all phospholipid vesicles tested | CMC ([2]; unit given in Figs S37-S40, not in Table 3): 4.6 mM
